Results taken from patent US6414021B1, “Control of intraocular pressure during surgery” (Sucampo AG, priority 2000, dated 2002).

Key:
[1] = test system: intraocular pressure in monkeys; experiment: Effects on intraocular pressure by intra-anterior chamber perfusion with a lower dosage in monkeys (Example 2, 2 ng/mL); assay type: in vivo, cynomologus monkeys; details: for IOP: perfusion 40 μL/min for 1 hour; for IOP / Difference in IOP between both treatments (IOP in 15-keto acid of latanoprost treatment minus IOP in vehicle treatment) / ΔIOP: Changes of IOP from pre-treatment value: mean ± S.E. of 7 animals
Protocol: The effects on intraocular pressure by intra-anterior chamber perfusion with a lower dosage of 13,14-dihydro-15-keto-17-phenyl-18,19,20-trinor-PGF2 α (15-keto acid of latanoprost) were investigated in monkeys. One hour perfusion in the anterior chamber with 15-keto acid of latanoprost at the concentration (2 ng/mL) was carried out.
The solution containing 15-keto acid of latanoprost at 2 ng/mL was prepared with a commercially available intraocular perfusate (Opeguard MA, Senju Pharmaceutical Co. Ltd.) as a vehicle.
Seven male cynomologus monkeys (Body weight: 3.9-6.0 kg) purchased from Kasyo Co., Ltd. were used. These monkeys were housed individually in cages in a room which was maintained at room temperature of 24±1° C., relative humidity of 55±10%, ventilation rate of about 12 times/hour and 12-hour light-dark cycle (fluorescent lighting: 8:00 to 20:00). The animals were given food pellets for monkeys (PS, Oriental Yeast Co., Ltd.), vegetables and fruits once a day, and allowed free access to tap water from an automatic dispenser. The healthy animals without abnormalities in the anterior segment of the eye were used in this study.
The animals were anesthetized by an intramuscular injection of 5.0-7.5 mg/kg of katamine hydrochloride (Ketalar 50, Sankyo Co., Ltd.), and restrained in a supine position. Two 30 G injection needles (one for infusion of the dosing solution and the other for discharge, Becton Dickinson and Co.) connected to polyethylene cannula (PE10, Becton Dickinson and Co.) were inserted into the anterior chamber from the temporal corneal ring of the eye ball. The anterior chamber was perfused with the 15-keto acid of latanoprost solution or the vehicle at a rate of 40 μL/min through the cannula for 1 hour using a syringe pump (Model 100, KD Scientific Inc.). During the perfusion, the anesthesia was maintained by intramuscular injection of 5.0 mg/kg ketamine hydrochloride every 20 minutes.
The animals were systemically anesthetized by an intramuscular injection of 5.0-7.5 mg/kg of ketamine hydrochloride (Ketalar 50, Sankyo Co., Ltd.), and the ocular surface was anesthetized by a instillation of 0.4% oxybuprocaine hydrochloride (Benoxil 0.4% solution, Santen Pharmaceutical Co., Ltd.). The animals were fixed in a supine position, and the intraocular pressure was measured by use of a pneumatonometer (Model 30 Classic, Mentor O & O.) before, and 3 and 5 hours after starting the perfusion (2 and 4 hours after stopping the perfusion, respectively).
The animals were used two times. The same eye of each animal was used for both treatments in a crossover way with a recovery period for at least 12 days.
The data were statistically analyzed with Student's t-test or paired t-test. P values less than 0.05 were considered to be statistically significant.

[2] = test system: intraocular pressure in monkeys; experiment: Intraocular pressure lowering effect by perfusion in the anterior chamber in monkeys (Example 1, 59 ng/mL); assay type: in vivo, cynomolgus monkeys; details: for IOP decrease as compared with changes in IOP of the control after vehicle perfusion: 59 ng/mL, anterior chamber perfusion 50 μL/min for 1 hour, n=2
Protocol: The intraocular pressure lowering effect of 15-keto acid of latanoprost (13,14-dihydro-15-keto-17-phenyl-18,19,20-trinor-PGF2α) by perfusion in the anterior chamber in monkeys was investigated.
Male cynomolgus monkeys (body weight: 4.5-6.5 kg) were used. These monkeys were housed individually in cages for monkeys in a room which was maintained at room temperature of 24±1° C., relative humidity of 55±10%, ventilation of about 12 times/hour and a 12-hour light-dark cycle (fluorescent lighting: 8:00 a.m. to 8:00 p.m). The animals were given solid food for monkeys (PS, Oriental Yeast Co., Ltd.), vegetables and fruits, and allowed free access to tap water from an automatic dispenser. The healthy animals without abnormalities in the anterior segment of the eye were used in this study.
In the present study the solution containing 59 ng/mL of 15-keto acid of latanoprost was adjusted with commercially available intraocular perfusate (Opeguard-MA, Lot P-464, Senju Pharmaceutical Co., Ltd.). The control solution (vehicle) was the intraocular perfusate.
The animals were anesthetized by the injection intramuscularly with 5.0-7.5 mg/kg of ketamine hydrochloride (Ketalar®50, Sankyo Co., Ltd.), and restrained in a supine position. In operation and perfusion of the dosing solution in the anterior chamber, the anesthesia was maintained by intramuscular injection of 5 mg/kg of ketamine at interval of 30 minutes. […]
After the ocular surface of monkeys was anesthetized by instillation of 0.4% oxybuprocaine hydrochloride (Benoxil® 0.4% solution, Santen Pharmaceutical Co., Ltd.) under i.m. systemic anesthesia with 5 mg/kg of ketamine hydrochloride, IOP was measured with an applanation pneumatonograph (Alcon Japan Ltd.). IOP was measured before perfusion of the test substance and 2 and 4 hours after perfusion (3 and 5 hours, respectively, after the start of the perfusion of the test substance). The mean value of the IOP measured twice at 30-minute interval before perfusion was used as IOP before perfusion of the test substance. […]

[3] = 2 ng/mL, 3 hours after starting perfusion
[4] = 2 ng/mL, 5 hours after starting perfusion

O=C(O)CCC/C=C\C[C@@H]1[C@@H](CCC(=O)CCc2ccccc2)[C@H](O)C[C@@H]1O [15-keto acid of latanoprost, 13,14-dihydro-15-keto-17-phenyl-18,19,20-trinor-PGF2α]
effect on intraocular pressure (in words) ([1]; 2 ng/mL solution, intra-anterior chamber perfusion): significant reduction in the intraocular pressure
IOP [1, 3]: 23.1 ± 1.3 mmHg
IOP [1, 4]: 24.4 ± 0.7 mmHg
IOP ([1]; 2 ng/mL, before perfusion): 24.1 ± 0.8 mmHg
Difference in IOP between both treatments (IOP in 15-keto acid of latanoprost treatment minus IOP in vehicle treatment) [1, 3]: −2.9 ± 1.1 mmHg
ΔIOP: Changes of IOP from pre-treatment value [1, 3]: −1.0 ± 0.7 mmHg
lowering of intraocular pressure as compared with the pre-treatment value ([1]; 2 ng/mL, 3 hours after starting the perfusion): 1.0 mmHg
Difference in IOP between both treatments (IOP in 15-keto acid of latanoprost treatment minus IOP in vehicle treatment) [1, 4]: 0.0 ± 1.0 mmHg
ΔIOP: Changes of IOP from pre-treatment value [1, 4]: 0.3 ± 0.7 mmHg
Difference in IOP between both treatments (IOP in 15-keto acid of latanoprost treatment minus IOP in vehicle treatment) ([1]; 2 ng/mL, before perfusion): 0.7 ± 1.1 mmHg
IOP decrease as compared with changes in IOP of the control after vehicle perfusion ([2]; 3 hours after the start of perfusion): 2.8 mmHg
IOP decrease as compared with changes in IOP of the control after vehicle perfusion ([2]; 5 hours after the start of perfusion): 2.3 mmHg
effect on intraocular pressure (in words) ([2]; perfusion in the anterior chamber, monkeys): intraocular pressure was lowered
